Source: publication PMC9676923, “Characterization of relaxin 3 and its receptors in chicken: Evidence for relaxin 3 acting as a novel pituitary hormone” (Frontiers in Physiology, 2022)

Assays:
[1] = tested on: cRXFP1; test: pGL3-CRE-luciferase reporter (cAMP/PKA), HEK293 cells expressing cRXFP1; format: cell-based, chicken
Description: (§1) According to our previously established methods ([Liu et al., 2019]; [Jiang et al., 2022]), two cell-based luciferase reporter systems (pGL3-CRE-luciferase and pGL3-NFAT-RE-luciferase) were used to verify whether cRLN3cm is biologically active and capable of activating cRXFP1 and cRXFP3. In brief, HEK293 cells transiently expressing each receptor (cRXFP1 and cRXFP3) were treated with 30 μl serum-free medium containing cRLN3cm or pcDNAcm (0.001–10 μl) for 6 h, and the receptor-activated cAMP/PKA pathways and calcium mobilization were then monitored by pGL3-CRE-luciferase and pGL3-NFAT-RE-luciferase reporter systems, respectively. HEK293 cells expressing empty pcDNA3.1 (+) were used as a negative control.
(§2) To compare the functional difference between chicken RLN3 and human RLN3, recombinant human RLN3 (rhRLN3, 10^–12 to 10^–7 M, 6 h) was used to treat HEK293 cells expressing cRXFP1 or cRXFP3, respectively, and its potency in activating cRXFP1 and cRXFP3 was also evaluated.
(§3) To verify whether chicken RLN3 can activate RXFP1 or RXFP3, a cRLN3-conditioned medium (cRLN3cm, 0.001–10 μl) was used to treat HEK293 cells expressing cRXFP1/cRXFP3. Receptor activation was examined by pGL3-CRE-luciferase and pGL3-NFAT-RE-luciferase reporter systems established in our previous studies ([Liu et al., 2019]).

[2] = tested on: cRXFP3; test: pGL3-CRE-luciferase reporter, inhibition of forskolin-stimulated luciferase activity, HEK293 cells expressing cRXFP3; format: cell-based, chicken; details: rhRLN3 10^-12 to 10^-7 M, 6 h, HEK293 cells transiently expressing cRXFP3, N = 3, read-out: EC50, cAMP/PKA, cRXFP3 (inhibition of forskolin-stimulated luciferase activity)
Description: as §1, §2, §3

[3] = tested on: cRXFP1; test: pGL3-NFAT-RE-luciferase reporter (calcium mobilization), HEK293 cells expressing cRXFP1; format: cell-based, chicken; details: rhRLN3 10^-12 to 10^-7 M, 6 h, HEK293 cells transiently expressing cRXFP1, N = 3, read-out: EC50, Ca^2+, cRXFP1
Description: as §1, §2, §3

[4] = tested on: cRXFP3; test: pGL3-NFAT-RE-luciferase reporter (calcium mobilization), HEK293 cells expressing cRXFP3; format: cell-based, chicken; details: rhRLN3 10^-12 to 10^-7 M, 6 h, N = 3
Description: as §1, §2, §3

[5] = tested on: HEK293 cells transfected with an empty pcDNA3.1 (+) vector; test: Luciferase reporter control, HEK293 cells transfected with empty pcDNA3.1 (+) vector; format: cell-based; details: rhRLN3 10^-12 to 10^-7 M, 6 h; pGL3-CRE and pGL3-NFAT-RE reporters; N = 3
Source text: According to our previously established methods ([Liu et al., 2019]; [Jiang et al., 2022]), two cell-based luciferase reporter systems (pGL3-CRE-luciferase and pGL3-NFAT-RE-luciferase) were used to verify whether cRLN3cm is biologically active and capable of activating cRXFP1 and cRXFP3. […] HEK293 cells expressing empty pcDNA3.1 (+) were used as a negative control.
To explore whether pituitary cells can secrete RLN3, we collected the extracellular medium of adult female chicken pituitary cells to detect its activation potential. According to the method provided in the previous article ([Sun et al., 2021]; [Liu et al., 2022]), the anterior pituitaries from a laying hen were isolated and further cut into small pieces with clean scissors. After washing with PBS, the cut pieces were then digested with 0.25% trypsin at 37°C for 30 min. The dispersed pituitary cells were cultured in Medium 199 supplemented with 10% fetal bovine serum in a Corning Cell BIND 48-well plate (Corning, Tewksbury, MA) at 37°C with 5% CO2. […] The HEK293 cells expressing cRXFP1 were treated with a 60 μl serum-free medium containing chicken pituitary cell extracellular medium (2 × 10^−3μl to 2 × 10^1 μl) for 6 h, and then receptor-activated calcium mobilization was monitored by pGL3-NFAT-RE-luciferase reporter systems. […]

Q: For recombinant human relaxin 3 [rhRLN3], which “potency on cRXFP1 compared with cRXFP3 (in words)” value ([1]; HEK293 cells expressing cRXFP1 or cRXFP3) is on record?
A: Its value is “higher potency for cRXFP1 activation”.

Q: What about the EC50 ([1]; rhRLN3 10^-12 to 10^-7 M, 6 h, HEK293 cells transiently expressing cRXFP1, mean of three replicates (N = 3)) of the same substance?
A: Its EC50 is 2.68 nM.

Q: And the EC50 [2]?
A: Its EC50 is 41.5 nM.

Q: What about the EC50 [3] of the same substance?
A: Its EC50 is 21.1 nM.

Q: What about the “stimulation of luciferase activity (Ca^2+), cRXFP3” value [4] of the same substance?
A: Its value is “not cRXFP3”.

Q: And the “change of luciferase activity in empty-vector cells” value [5]?
A: The value was “did not change the luciferase activity”.
